One compound from BindingDB's records for doi:10.1016/j.bmcl.2008.09.059 (Seoul National University, 2008) can be followed below.

This assay addresses Isocitrate lyase (Candida albicans, UniProt Q9P8Q7). Put plainly: Inhibition of candida albicans isocitrate lyase.

Sequence of Isocitrate lyase (Q9P8Q7 whole entry): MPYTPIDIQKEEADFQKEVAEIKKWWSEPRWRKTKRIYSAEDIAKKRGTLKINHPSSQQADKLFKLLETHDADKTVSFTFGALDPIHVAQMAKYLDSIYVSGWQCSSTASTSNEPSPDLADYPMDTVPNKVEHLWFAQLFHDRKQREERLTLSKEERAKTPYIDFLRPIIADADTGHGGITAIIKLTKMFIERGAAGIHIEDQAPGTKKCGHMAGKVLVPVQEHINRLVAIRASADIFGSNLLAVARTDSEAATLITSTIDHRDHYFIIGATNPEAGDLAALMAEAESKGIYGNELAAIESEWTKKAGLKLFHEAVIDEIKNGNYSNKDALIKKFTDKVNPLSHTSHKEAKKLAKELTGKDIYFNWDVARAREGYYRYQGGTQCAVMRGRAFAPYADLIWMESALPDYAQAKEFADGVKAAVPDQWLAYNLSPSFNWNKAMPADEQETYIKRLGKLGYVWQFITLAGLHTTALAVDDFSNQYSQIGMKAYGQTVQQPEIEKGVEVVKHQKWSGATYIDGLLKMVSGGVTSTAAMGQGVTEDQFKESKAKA

On to `CC1=CC[C@H]2C(C)(C)CCC[C@]2(C)[C@H]1C[C@@H](OS(=O)(=O)O)[C@H](C)CCC/C(C)=C/Cc1cc(O)ccc1O`, for which half-maximal inhibition (IC50) required 158 µM.
